Drawing on patent publication US20060116390A1, “Hepatitis c virus inhibitors” (priority 2003, published 2006), this text covers IC50 for 26 molecules.

Where two headings read alike, the source gives them in different places.

The test system of the experiment is HCV proteins in Rep5.1 cells (replicon cell line). As to the kind of experiment: Inhibitory activity of HCV: cell-based ELISA in replicon cell line Rep5.1 (decrease of HCV proteins). Details: species or system hepatitis C virus. The settings on record: Hepatitis C virus, 72 h, Rep5.1 cells, 72 hours with drug. How it is done: In order to, screen and evaluate the anti-HCV therapeutic agents in cell level, the following experiments are carried out using a replicon cell line, Rep5.1 [Lohmann, et al., Replication of subgenomic hepatitis C virus RNAs in a hepatoma cell line. Science 285:110-113 (1999)].
Rep5.1 cells, the replicon cell line, are cultured in DMEM-10 containing 500 μg/ml of G418. The Rep5.1 cells in log phase are suspended by trypsin treatment, and 5000 cells are distributed to each well of a 96-well plate. After 4 hours when the cells are attached to the plate, the serially diluted drug is added to each well. After 48 hours, a part of the treated cells are observed by microscope, and MTT assay is carried out to evaluate the drug toxicity. The cytotoxicity is estimated in percentage based on the control containing no drug. After 72 hours, the remaining cells are fixed by methanol/acetone (50/50, v/v), and the decrease of HCV proteins is measured by using HCV antibody. The extent of decrease is estimated in percentage based on the control containing no drug, and the concentration of drug at which 50% of proteins is decreased is determined to be IC50. The compounds showing activity via this procedure are validated by Western blotting. In order to find out whether the decrease of HCV protein is related to the decrease of replicon RNA, Rep5.1 cell is treated with some selected drugs for 72 hours, RNA is purified, dot blotted, and hybridized with isotope labelled nucleic acid to determine the amounts of actin mRNA and replicon RNA, and finally the amount of RNA is compared.
Plasma samples from 300 persons positive to the hepatitis C antibody test were screened by antibody diagnosis kit produced by LG life Sciences Ltd. (LG HCD3.0 TMB) to select 40 plasma samples having high titer. Replicon cell line and Huh-7 cell line each were cultured in a 96-well cell culture plate, fixed by methanol/acetone (1:1) mixture, and blocked by 3% skimmed milk. The 40 plasma sanples selected above were 100-fold diluted and aided thereto, and the bound antibodies were probed by anti-Human goat antibody (Sigma) to which Horse Radish Peroxidase is attached. As a result, 12 plasma samples having low specificity to Huh-7 cell line, but high specificity to replicon cell line were obtained. These plasma samples were used in the following cell-based ELISA.
Rep5.1 cells were cultured in DMEM-10 containing 500 μg/ml of G418. The Rep5.1 cells in log phase were suspended by trypsin treatment, and 5000 cells were distributed to each well of a 96-well pate. After 4 hours for which the cells were attached to the plate, the serially diluted drug was added to each well. After 72 hours, the cells were fixed by methanol/acetone (50/50, v/v), and the decrease of HCV proteins was measured by using HCV antibody obtained as above. The extent of decrease was estimated in percentage based on the control containing no drug, and the concentration of drug at which 50% of proteins was decreased was determined to be IC50.
On the technique in general: ELISA stands for enzyme-linked immunosorbent assay.

Where [1] appears, read: concentration at which 50% of HCV proteins was decreased, Table 2, read-out: IC50.
[2] abbreviates: decrease of HCV proteins measured by HCV antibody, Table 1, read-out: Level (IC50 values classified).

With `CC1=C(C(=O)OCCCc2ccsc2F)C(CO)NC(=S)N1` (stereo not shown) [13″, 4-hydroxymethyl-6-methyl-2-thioxo-1,2,3,4-tetrahydro-pyrimidine-5-carboxylic acid 3-(2-fluoro-thiophen-3-yl)-propyl ester], the IC50 (usually the concentration that gives 50% inhibition) under setting [1] turned out to be 5300 nM and the IC50 under setting [2] was 1000 to 10000 nM.
`CC1=C(C(=O)OCCc2cccc([N+](=O)[O-])c2)CNC(=S)N1` [14′, 6-methyl-2-thioxo-1,2,3,4-tetrahydro-pyrimidine-5-carboxylic acid 2-(3-nitro-phenyl)-ethyl ester]: the IC50 under setting [1] came out at 700 nM and the IC50 under setting [2] was less than 1000 nM.
On the same counts, the results for `CC1=C(C(=O)OCCCc2ccccc2)C(CO)NC(=S)N1` (stereo not shown) [14″, 4-hydroxymethyl-6-methyl-2-thioxo-1,2,3,4-tetrahydro-pyrimidine-5-carboxylic acid 3-phenyl-propyl ester] are 2600 nM and 1000 to 10000 nM.
For `CC1=C(C(=O)OCc2scc(C)c2Cl)C(CF)NC(=S)N1` (stereo not shown) [15′, 4-fluoromethyl-6-methyl-2-thioxo-1,2,3,4-tetrahydro-pyrimidine-5-carboxylic acid 3-chloro-4-methyl-thiophen-2-ylmethyl ester] the same measures were 1000 nM and less than 1000 nM.
On the same counts, the results for `CC1=C(C(=O)OCCCc2ccsc2)C(C(C)O)NC(=S)N1` (stereo not shown) [15″, 4-(1-hydroxy-ethyl)-6-methyl-2-thioxo-1,2,3,4-tetrahydro-pyrimidine-5-carboxylic acid 3-thiophen-3-yl-propyl ester] are 55000 nM and greater than 20000 nM.
For `O=C(OCCCc1cccs1)C1=CNC(=S)NC1CF` (stereo not shown) [16′, 4-fluoromethyl-2-thioxo-1,2,3,4-tetrahydro-pyrimidine-5-carboxylic acid 3-thiophen-2-yl-propyl ester], the IC50 was 2000 nM under setting [1] and 1000 to 10000 nM under setting [2].
For `CC1=C(C(=O)OCCOCCc2ccsc2)C(CO)NC(=S)N1` (stereo not shown) [16″, 4-hydroxymethyl-6-methyl-2-thioxo-1,2,3,4-tetrahydro-pyrimidine-5-carboxylic acid 2-(2-thiophen-3-yl-ethoxy)-ethyl ester] the same measures were greater than 100000 nM and greater than 20000 nM.
On the same counts, the results for `CC1=C(C(=O)OCCCc2sccc2C)C(CO)NC(=S)N1` (stereo not shown) [17″, 4-hydroxymethyl-6-methyl-2-thioxo-1,2,3,4-tetrahydro-pyrimidine-5-carboxylic acid 3-(3-methyl-thiophen-2-yl)-propyl ester] are 9000 nM and 1000 to 10000 nM.
On the same counts, the results for `CC1=C(C(=O)OCCCCCC(=O)O)CNC(=S)N1` [18′, 6-methyl-2-thioxo-1,2,3,4-tetrahydro-pyrimidine-5-carboxylic acid 5-carboxy-pentyl ester] are greater than 100000 nM and greater than 20000 nM.
Turning to `CC1=C(C(=O)OCCCCCc2ccccc2)C(CO)NC(=S)N1` (stereo not shown) [18″, 4-hydroxymethyl-6-methyl-2-thioxo-1,2,3,4-tetrahydro-pyrimidine-5-carboxylic acid 5-phenyl-pentyl ester], the IC50 reads like this: under setting [1], less than 400 nM; under setting [2], less than 1000 nM.
For `CCCCCCCCNC(=O)CCCCCOC(=O)C1=C(C)NC(=S)NC1` [19′, 6-methyl-2-thioxo-1,2,3,4-tetrahydro-pyrimidine-5-carboxylic acid 5-octylcarbamoyl-pentyl ester] the same measures were greater than 100000 nM and greater than 20000 nM.
On the same counts, the results for `CCc1ccc(CCCOC(=O)C2=C(C)NC(=S)NC2CO)o1` (stereo not shown) [19″, 4-hydroxymethyl-6-methyl-2-thioxo-1,2,3,4-tetrahydro-pyrimidine-5-carboxylic acid 3-(5-ethyl-furan-2-yl)-propyl ester] are 1400 nM and 1000 to 10000 nM.
On the same counts, the results for `CC1=C(C(=O)OCCCCCCCCCC(=O)O)CNC(=S)N1` [20′, 6-methyl-2-thioxo-1,2,3,4-tetrahydro-pyrimidine-5-carboxylic acid 9-carboxy-nonyl ester] are 27000 nM and greater than 20000 nM.
`CCNC(=O)OCC1NC(=S)NC(C)=C1C(=O)OCCCc1cccs1` (stereo not shown) [20″, 4-ethylcarbamoyloxymethyl-6-methyl-2-thioxo-1,2,3,4-tetrahydro-pyrimidine-5-carboxylic acid 3-thiophen-2-yl-propyl ester]: the IC50 is, setting by setting: under setting [1], 33300 nM; under setting [2], greater than 20000 nM.
For `CC1=C(C(=O)OC2CCc3c2csc3Cl)CNC(=S)N1` (stereo not shown) [21′, 6-methyl-2-thioxo-1,2,3,4-tetrahydro-pyrimidine-5-carboxylic acid 1-chloro-5,6-dihydro-4H-cyclopenta[c]thiophen-4-yl ester] the same measures were 400 nM and less than 1000 nM.
For `CC(=O)OCC1NC(=S)NC(C)=C1C(=O)OCCc1ccsc1` (stereo not shown) [21″, 4-acetoxymethyl-6-methyl-2-thioxo-1,2,3,4-tetrahydro-pyrimidine-5-carboxylic acid 2-thiophen-3-yl-ethyl ester], the concentration for half-maximal inhibition (IC50) was greater than 100000 nM under setting [1] and greater than 20000 nM under setting [2].
Consider `CCc1ccc(CCOC(=O)C2=C(C)NC(=S)NC2)o1` [22′, 6-methyl-2-thioxo-1,2,3,4-tetrahydro-pyrimidine-5-carboxylic acid 2-(5-ethyl-furan-2-yl)-ethyl ester], for which the IC50 under setting [1] is less than 400 nM and the IC50 under setting [2] was less than 1000 nM.
For `CC(=O)OCC1NC(=S)NC(C)=C1C(=O)OCCCc1ccsc1` (stereo not shown) [22″, 4-acetoxymethyl-6-methyl-2-thioxo-1,2,3,4-tetrahydro-pyrimidine-5-carboxylic acid 3-thiophen-3-yl-propyl ester] the same measures were 43000 nM and greater than 20000 nM.
On the same counts, the results for `CCc1ccc(CCOC(=O)C2=C(C)NC(=S)NC2CF)o1` (stereo not shown) [23′, 4-fluoromethyl-6-methyl-2-thioxo-1,2,3,4-tetrahydro-pyrimidine-5-carboxylic acid 2-(5-ethyl-furan-2-yl)-ethyl ester] are 700 nM and less than 1000 nM.
For `CC(=O)OCC1NC(=S)NC(C)=C1C(=O)OCCCc1cccs1` (stereo not shown) [23″, 4-acetoxymethyl-6-methyl-2-thioxo-1,2,3,4-tetrahydro-pyrimidine-5-carboxylic acid 3-thiophen-2-yl-propyl ester] the same measures were 9000 nM and 1000 to 10000 nM.
`CC1=C(C(=O)OCCc2ccsc2)[C@H](CF)NC(=S)N1` [24′, (R)-4-fluoromethyl-6-methyl-2-thioxo-1,2,3,4-tetrahydro-pyrimidine-5-carboxylic acid 2-thiophen-3-yl-ethyl ester]: the IC50 reads like this: under setting [1], 4400 nM; under setting [2], 1000 to 10000 nM.
For `CC1=C(C(=O)OCCCc2cccc3ccccc23)C(CO)NC(=S)N1` (stereo not shown) [24″, 4-hydroxymethyl-6-methyl-2-thioxo-1,2,3,4-tetrahydro-pyrimidine-5-carboxylic acid 3-naphthalen-1-yl-propyl ester] the same measures were 800 nM and less than 1000 nM.
On the same counts, the results for `CC1=C(C(=O)OCCc2ccsc2)[C@@H](CF)NC(=S)N1` [25′, (S)-4-fluoromethyl-6-methyl-2-thioxo-1,2,3,4-tetrahydro-pyrimidine-5-carboxylic acid 2-thiophen-3-yl-ethyl ester] are 4900 nM and 1000 to 10000 nM.
For `CC1=C(C(=O)OCCCCc2ccsc2)C(CO)NC(=S)N1` (stereo not shown) [25″, 4-hydroxymethyl-6-methyl-2-thioxo-1,2,3,4-tetrahydro-pyrimidine-5-carboxylic acid 4-thiophen-3-yl-butyl ester] the same measures were 2000 nM and 1000 to 10000 nM.
On to `CC1=C(C(=O)OCCc2csc([N+](=O)[O-])c2)CNC(=S)N1` [26′, 6-methyl-2-thioxo-1,2,3,4-tetrahydro-pyrimidine-5-carboxylic acid 2-(5-nitro-thiophen-3-yl)-ethyl ester], for which the IC50 reads like this: under setting [1], 900 nM; under setting [2], less than 1000 nM.
With `CC(=O)OCC1NC(=S)NC(C)=C1C(=O)OCCCCc1ccsc1` (stereo not shown) [26″, 4-acetoxymethyl-6-methyl-2-thioxo-1,2,3,4-tetrahydro-pyrimidine-5-carboxylic acid 4-thiophen-3-yl-butyl ester], the IC50 is 2000 nM under setting [1] and 1000 to 10000 nM under setting [2].
